Results published in patent publication US9650369B2, “Anti-migration and anti-invasion thiazole analogs for treatment of cellular proliferative disease” (XAVIER UNIVERSITY OF LOUISIANA, priority 2012, dated 2017).

Tests used:
Format in all cases: cell-based
[1] = test system: MDA-MB-231 breast cancer cells; assay: clonogenic assay (colony formation), MDA-MB-231; conditions: Homo sapiens, 336 h; MDA-MB-231, 10 μM analogs, 14 days; read-out: Effect on cell proliferation (colony formation) (% of vehicle control)
Method: To determine if these analogs have anti-migration and anti-invasion activities in different cancer cell lines, transwell migration assays were performed using MDA-MB-231 breast cancer cells (FIG. 3) and HeLa cells (FIG. 5) for all synthetic analogs. […] Next, clonogenic assays were performed on the breast cancer cells treated with the compounds to rule out any indirect effect on cell migration due to cytotoxicity (FIG. 4). MDA-MB-231 cells were allowed to grow for 14 days in six-well plates in the presence or absence of the synthetic compounds at 10 μM.
To rule out any indirect effect on cell migration due to cytotoxicity, clonogenic assays were performed on the breast cancer cells treated with the compounds. MDA-MB-231 cells were allowed to grow for 14 days in six-well plates in the presence or absence of the synthetic compounds at 10 μM. […] For example, analog 3g blocked both cell migration (81.4%) and colony formation (42.7%). For these analogs cytotoxity may have partially contributed to their overall anti-migration effect. The cell toxicity data for all analogs are listed in Table 1 along with anti-migration data for comparison.

[2] = antimigration efficacy of additional thiazole compounds (Table 3); conditions: cell line not given; read-out: IC50 (anti-migration)
Excerpt: (§1) The additional thiazole compounds were synthesized and tested for antimigration efficacy and cytotoxicity, with results shown in TABLE 3.

[3] = cytotoxicity of additional thiazole compounds (Table 3); conditions: cell line not given
Excerpt: as §1

IC50 [2] [nM]	SMILES	activity at 10 µM [1] [%]	Cytotoxicity (Survival at 1 μM) [3] [%]
	Nc1nc(-c2ccccc2)cs1 [Compound 2a, 2-Amino-4-phenylthiazole]	104	
	O=C(Nc1nc(-c2ccccc2)cs1)c1ccco1 [Compound 3b, N-(4-Phenylthiazol-2-yl)furan-2-carboxamide]	98.8	
	O=C(Nc1nc(-c2ccccc2)cs1)c1ccc(Cl)cc1 [Compound 3c, 4-Chloro-N-(4-phenylthiazol-2-yl)benzamide]	95	
	O=C(Nc1nc(-c2ccccc2)cs1)c1ccc(Br)cc1 [Compound 3d, 4-Bromo-N-(4-phenylthiazol-2-yl)benzamide]	98.6	
	COc1cc(C(=O)Nc2nc(-c3ccccc3)cs2)cc(OC)c1OC [Compound 3e, 3,4,5-Trimethoxy-N-(4-phenylthiazol-2-yl)benzamide]	80.9	
	Cc1ccc(-c2csc(NC(=O)c3cccs3)n2)c(C)c1 [Compound 3f, N-(4-(2,4-Dimethylphenyl)thiazol-2-yl)thiophene-2-carboxamide]	67.5	
	O=C(Nc1nc(-c2ccccc2)cs1)c1cccnc1 [Compound 3h, N-(4-Phenylthiazol-2-yl)nicotinamide]	103	
	O=C(Nc1nc(-c2ccccc2)cs1)C1CCCC1 [Compound 3k, N-(4-Phenylthiazol-2-yl)cyclopentanecarboxamide]	99.8	
	O=C(Nc1nc(-c2ccccc2)cs1)C1CCCCC1 [Compound 3l, N-(4-Phenylthiazol-2-yl)cyclohexanecarboxamide]	103	
	CCCCCC(=O)Nc1nc(-c2ccccc2)cs1 [Compound 3m, N-(4-Phenylthiazol-2-yl)hexanamide]	90.7	
	CN(C(=O)c1ccc(Br)cc1)c1nc(-c2ccccc2)cs1 [Compound 4a, 4-Bromo-N-methyl-N-(4-phenylthiazol-2-yl)benzamide]	108	
	Cc1ccc(-c2csc(N(C)C(=O)c3cccs3)n2)c(C)c1 [Compound 4b, N-(4-(2,4-dimethylphenyl)thiazol-2-yl)-N-methylthiophene-2-carboxamide]	97.7	
847	Cc1sc(=NC(=O)c2ccccc2)n(C)c1-c1ccc(F)cc1 [Compound 15i, N-(4-(4-Fluorophenyl)-3,5-dimethylthiazol-2(3H)-ylidene)benzamide]		83.8
> 25000	Cc1ccc(-c2cn(C)/c(=N\C(=O)c3ccccc3)s2)cc1 [Compound 15j, N-(3-Methyl-5-(p-toyl)thiazol-2(3H)-ylidene)benzamide]		112.6
8000	COc1ccc(C(=O)N=c2scc(-c3cc(OC)c(OC)c(OC)c3)n2C)cc1 [Compound 15k, 4-Methoxy-N-(3-methyl-4-(3,4,5-trimethoxyphenyl)thiazol-2(3H)-ylidene)benzamide]		105.6
758	COc1cc(-c2csc(=NC(=O)c3ccc(Cl)cc3)n2C)cc(OC)c1OC [Compound 15l, 4-Chloro-N-(3-methyl-4-(3,4,5-trimethoxyphenyl)thiazol-2(3H)-ylidene)benzamide]		77.6

IC50 [2] [nM]	SMILES	activity at 10 µM [1] [%]	Cytotoxicity (Survival at 1 μM) [3] [%]
> 50000	COc1cccc(C(=O)N=c2scc(-c3cc(OC)c(OC)c(OC)c3)n2C)c1 [Compound 15m, 3-Methoxy-N-(3-methyl-4-(3,4,5-trimethoxyphenyl)thiazol-2(3H)-ylidene)benzamide]		103.5
104	Cn1c(C2CC2)csc1=NC(=O)c1ccccc1 [Compound 15n, N-(4-Cyclopropyl-3-methylthiazol-2(3H)-ylidene)benzamide]		90.7
1960	COc1cc(C(=O)/N=c2/scc(-c3cc(OC)c(OC)c(OC)c3)n2C)cc(OC)c1OC [Compound 15o, 3,4,5-Trimethoxy-N-(3-methyl-4-(3,4,5-trimethoxyphenyl)thiazol-2(3H)-ylidene) benzamide]		81.5
41.6	CN(C(=O)c1ccccc1)c1nc(-c2ccccc2Cl)cs1 [Compound 16a, N-(4-(2-Chlorophenyl)thiazol-2-yl)-N-methylbenzamide]		88.9
437	CN(C(=O)c1ccccc1)c1nc(-c2cccc(Br)c2)cs1 [Compound 16b, N-(4-(3-Bromophenyl)thiazol-2-yl)-N-methylbenzamide]		104.4
317	CN(C(=O)c1ccccc1)c1nc(-c2ccc(Br)cc2)cs1 [Compound 16c, N-(4-(4-Bromophenyl)thiazol-2-yl)-N-methylbenzamide]		65.4
10000	COc1cc(-c2csc(N(C)C(=O)c3ccccc3)n2)cc(OC)c1OC [Compound 16d, N-Methyl-N-(4-(3,4,5-trimethoxyphenyl)thiazol-2-yl)benzamide]		96.4
1620	Cc1sc(N(C)C(=O)c2ccccc2)nc1-c1ccc(F)cc1 [Compound 16e, N-(4-(4-Fluorophenyl)-5-methylthiazol-2-yl)-N-methylbenzamide]		107.6
1090	Cc1ccc(-c2cnc(N(C)C(=O)c3ccccc3)s2)cc1 [Compound 16f, N-Methyl-N-(5-(p-tolyl)thiazol-2-yl)benzamide]		59.3
312	COc1ccc(C(=O)N(C)c2nc(-c3cc(OC)c(OC)c(OC)c3)cs2)cc1 [Compound 16g, 4-Methoxy-N-methyl-N-(4-(3,4,5-trimethoxyphenyl)thiazol-2-yl)benzamide]		100.0
> 25000	COc1ccc(C(=O)N(C)c2nc(-c3cc(OC)c(OC)c(OC)c3)cs2)cc1OC [Compound 16h, 3,4-Dimethoxy-N-methyl-N-(4-(3,4,5-trimethoxyphenyl)thiazol-2-yl)benzamide]		101.9
5040	COc1ccc(C(=O)N(C)c2nc(-c3cc(OC)c(OC)c(OC)c3)cs2)c(OC)c1 [Compound 16i, 2,4-Dimethoxy-N-methyl-N-(4-(3,4,5-trimethoxyphenyl)thiazol-2-yl)benzamide]		118.5
470	COc1cc(C(=O)N(C)c2nc(-c3cc(OC)c(OC)c(OC)c3)cs2)cc(OC)c1OC [Compound 16j, 3,4,5-Trimethoxy-N-methyl-N-(4-(3,4,5-trimethoxyphenyl)thiazol-2-yl)benzamide]		114.8
108	COc1cc(-c2csc(N(C)C(=O)c3cccc(OC)c3OC)n2)cc(OC)c1OC [Compound 16k, 2,3-Dimethoxy-N-methyl-N-(4-(3,4,5-trimethoxyphenyl)thiazol-2-yl)benzamide]		117.6
> 25000	COc1ccccc1C(=O)N(C)c1nc(-c2cc(OC)c(OC)c(OC)c2)cs1 [Compound 16l, 2-Methoxy-N-methyl-N-(4-(3,4,5-trimethoxyphenyl)thiazol-2-yl)benzamide]		109.3
646	COc1cccc(C(=O)N(C)c2nc(-c3cc(OC)c(OC)c(OC)c3)cs2)c1 [Compound 16m, 3-Methoxy-N-methyl-N-(4-(3,4,5-trimethoxyphenyl)thiazol-2-yl)benzamide]		88.9
